Source: PMC4383039 (Science translational medicine, 2015)
≈ marks a conversion by molar mass, not a printed value. Where “and” joins values, the source holds several entries; their conditions need not be identical. Equal values may be shown once.

Key:
Format in all cases: cell-based, Mycobacterium tuberculosis
[1] = system: 4-hydroxy-2-pyridone resistance mutants of Mtb
[2] = system: H37Rv∷pMV262-InhA strains; experiment: microbe, parasite or virus in culture; conditions: for MIC50: Mycobacterium tuberculosis, H37RV, read-out: Compound MIC50
Mtb H37Rv = system: Mtb H37Rv

| Structure (SMILES) | Compound MIC50 [1] | fold more resistant than the parental H37Rv strain [1] | MIC50 [2] | Mutation frequency (Mtb H37Rv) | frequency of resistance (Mtb H37Rv) | resistance, MIC50 fold [1] | MIC50 fold shift with the Mtb H37Rv strain [2] | Compound MIC50 [2] |
| --- | --- | --- | --- | --- | --- | --- | --- | --- |
| CC(C)Cc1cc(O)c(-c2ccccc2)c(=O)[nH]1 [NITD-529, 4-hydroxy-6-isobutyl-3-phenylpyridin-2(1H)-one] | > 40 µM | at least 25 fold | 2.59 µM (≈ 0.63 µg/mL) | 1.2×10^-8 | 1 × 10^−8 | – | – | – |
| CCc1cc(C(N)=S)ccn1 [ethionamide] | – | – | – | – | – | > 3 fold | – | – |
| NNC(=O)c1ccncc1 [isoniazid] | – | – | 0.51 µM (≈ 0.0699 µg/mL) | ∼ 1× 10^-6 | – | > 3 fold | 0.51 (2.04×) | – |
| [H]/N=C(/N)N[C@H]1[C@H](O)[C@@H](O)[C@H](O[C@@H]2O[C@@H](C)[C@](O)(C=O)[C@H]2O[C@@H]2O[C@@H](CO)[C@H](O)[C@@H](O)[C@@H]2NC)[C@@H](N/C(N)=N\[H])[C@@H]1O [streptomycin] | 0.1 µM and 0.09 µM and 0.08 µM and 0.06 µM | – | 0.074 µM (≈ 0.043 µg/mL) | – | – | – | – | 0.084 µM and 0.079 µM and 0.075 µM |
